# Literature values, collected in patent US6288040A, “Medicament excipient particles for tissue-specific application of a medicament” (DSS Drug Delivery Service Gesellschaft zur Forderung der …, priority 1997, dated 2001).
# Non-standard residues stand in square brackets, D forms with d. No end group written: not given here.
# Test system: mice
# Settings: free dalargin, high dosage 20 mg/kg
substance,measurement,value
"Tyr-D-Ala-Gly-Phe-Leu-Arg (Y[dA]GFLR) [dalargin, hexapeptide, leu-enkephalin-analogon, opioid receptor agonist]",analgesic effect after i.v. administration of dalargin,does not lead to an analgesic effect
